Read-outs that look alike come from different tables or passages of the source.
Legend:
[1] = Study BHV3500-103 Treatment B: PK after 50 mg x 1 SoftGel orally; type: in vivo, humans; conditions: Study 103, 50 mg SoftGel x 1 oral; for AUC(0-t) / AUC(0-inf) / Cmax / Tmax: human, in vivo, po, 50 mg
Procedure: Single-dose: Study BHV3500-103, PK data after 50 mg×1 (2×25 mg) SoftGel administered orally (Treatment B)

[2] = Study BHV3500-107 Cohort 1: zavegepant 50 mg SoftGel QD PK (fasted Days 1-10, fed Days 11-14); type: in vivo, humans; conditions: for Concentration: Cohort 1, 50 mg QD SoftGel, pre-dose
[3] = Cohort 1, Day 10, 50 mg QD SoftGel oral, fasted, multiple dose, Max
[4] = Cohort 1, Day 10, 50 mg QD SoftGel oral, fasted, multiple dose, Min
[5] = Day 14 (with food, moderate fat meal) vs. Day 10 (fasted), 50 mg QD SoftGel
[6] = Study 107, Cohort 1, Day 1, 50 mg SoftGel single dose, fasted

Cc1cc(C[C@@H](NC(=O)N2CCC(c3cc4ccccc4[nH]c3=O)CC2)C(=O)N2CCN(C3CCN(C)CC3)CC2)cc2cn[nH]c12 [BHV-3500, (R)-N-(3-(7-methyl-1H-indazol-5-yl)-1-(4-(1-methylpiperidin-4-yl)piperazin-1-yl)-1-oxopropan-2-yl)-4-(2-oxo-1,2-dihydroquinolin-3-yl)piperidine-1-carboxamide]
AUC0-24, Max [1]: 59.0 ng·h/mL | AUCINF_obs, Max [1]: 60.1 ng·h/mL | AUCINF_obs, Min [1]: 9.21 ng·h/mL | Cmax, Max [1]: 26.8 ng/mL | Cmax, Min [1]: 1.86 ng/mL | HL_Lambda_z, Geometric Mean [1]: 2.17 h | HL_Lambda_z, Max [1]: 4.74 h | HL_Lambda_z, Mean [1]: 2.28 h | HL_Lambda_z, Median [1]: 1.98 h | HL_Lambda_z, Min [1]: 1.48 h | Tmax, Min [1]: 0.500 h | AUC(0-t) ([1]; read-out: AUC0-24, Geometric Mean): 21 ng·h/mL | AUC(0-t) ([1]; read-out: AUC0-24, Mean): 25.3 ng·h/mL | AUC(0-t) ([1]; read-out: AUC0-24, Median): 18.8 ng·h/mL | AUC(0-inf) ([1]; read-out: AUCINF_obs, Geometric Mean): 21.5 ng·h/mL | AUC(0-inf) ([1]; read-out: AUCINF_obs, Mean): 25.8 ng·h/mL | AUC(0-inf) ([1]; read-out: AUCINF_obs, Median): 19.1 ng·h/mL | Cmax ([1]; read-out: Cmax, Geometric Mean): 7.6 ng/mL | Cmax ([1]; read-out: Cmax, Mean): 10.8 ng/mL | Cmax ([1]; read-out: Cmax, Median): 7.06 ng/mL | Tmax ([1]; read-out: Tmax, Geometric Mean): 1.65 h | Tmax ([1]; read-out: Tmax, Mean): 1.98 h | Tmax ([1]; read-out: Tmax, Median): 1.75 h | Pre-dose (C0) concentrations ([2]; 50 mg QD SoftGel, Days 1-14): largely below the LLOQ | Concentration ([2]; Day 6, fasting, Mean): 0.0936 ng/mL | Concentration ([2]; Day 10, fasting, Max): 8.5 ng/mL | Concentration ([2]; Day 10, fasting, Mean): 0.0582 ng/mL | Concentration ([2]; Day 12, moderate fat meal, Mean): 0.0764 ng/mL | Concentration ([2]; Day 12, moderate fat meal, Min): 0 ng/mL | Concentration ([2]; Day 14, moderate fat meal, Mean): 0 ng/mL | Concentration ([2]; Day 14, moderate fat meal, Min): 0 ng/mL | Cmax ([2]; Cohort 1, Day 1, 50 mg SoftGel oral, fasted, single dose, Max): 13.8 ng/mL | Residual area ([2]; Cohort 1, Day 1, 50 mg SoftGel oral, fasted, single dose, Median): 8.9% | Cmax ([2]; Cohort 1, Day 1, 50 mg SoftGel oral, fasted, single dose, Min): 1.42 ng/mL | Cmax [2, 3]: 46.1 ng/mL | Tmax [2, 3]: 5 h | Tmax ([2]; Cohort 1, Day 10, 50 mg QD SoftGel oral, fasted, multiple dose, Mean, listed as Zavegepant): 2.59 h | Cmax [2, 4]: 2.27 ng/mL | Tmax [2, 4]: 1.5 h | Cmax ([2]; Cohort 1, Day 14, 50 mg QD SoftGel oral, fed (moderate fat meal), multiple dose, Max): 3.02 ng/mL | Tmax ([2]; Cohort 1, Day 14, 50 mg QD SoftGel oral, fed (moderate fat meal), multiple dose, Min): 2.5 h | decrease in extent of absorption (AUC) with food [2, 5]: ~65% | decrease in rate of absorption (Cmax) with food [2, 5]: ~72% | Tmax ([2]; Day 14, fed (moderate fat meal), multiple dose, 50 mg QD SoftGel, statistic not stated, listed as zavegepant): 3.6 h | AUC0-24, Max [2, 6]: 46.3 ng·h/mL | AUC0-24, Mean [2, 6]: 19.1 ng·h/mL | AUC0-24, Min [2, 6]: 4.66 ng·h/mL | AUCINF_obs, Max [2, 6]: 47.8 ng·h/mL | AUCINF_obs, Mean [2, 6]: 22.6 ng·h/mL | AUCINF_obs, Min [2, 6]: 9.54 ng·h/mL | Cmax, Max [2, 6]: 13.8 ng/mL
